Data published in ChEMBL document CHEMBL5625224, “Identification of [1,2,4]Triazolo[4,3-a]pyrazine PARP1 inhibitors with overcome acquired resistance activities” (Eur J Med Chem, 2023).

Columns and labels:
[1] = Cytotoxicity against Chinese hamster V-C8 BRCA2-/- cells assessed as reduction in cell viability; type: toxicity, cell-based, Cricetulus griseus
[2] = molecular target: T1, Poly [ADP-ribose] polymerase 1 (Homo sapiens, UniProt P09874); experiment: Inhibition of PARP1 (unknown origin) incubated for 1 hr by ELISA analysis
T1 sequence (P09874 whole entry): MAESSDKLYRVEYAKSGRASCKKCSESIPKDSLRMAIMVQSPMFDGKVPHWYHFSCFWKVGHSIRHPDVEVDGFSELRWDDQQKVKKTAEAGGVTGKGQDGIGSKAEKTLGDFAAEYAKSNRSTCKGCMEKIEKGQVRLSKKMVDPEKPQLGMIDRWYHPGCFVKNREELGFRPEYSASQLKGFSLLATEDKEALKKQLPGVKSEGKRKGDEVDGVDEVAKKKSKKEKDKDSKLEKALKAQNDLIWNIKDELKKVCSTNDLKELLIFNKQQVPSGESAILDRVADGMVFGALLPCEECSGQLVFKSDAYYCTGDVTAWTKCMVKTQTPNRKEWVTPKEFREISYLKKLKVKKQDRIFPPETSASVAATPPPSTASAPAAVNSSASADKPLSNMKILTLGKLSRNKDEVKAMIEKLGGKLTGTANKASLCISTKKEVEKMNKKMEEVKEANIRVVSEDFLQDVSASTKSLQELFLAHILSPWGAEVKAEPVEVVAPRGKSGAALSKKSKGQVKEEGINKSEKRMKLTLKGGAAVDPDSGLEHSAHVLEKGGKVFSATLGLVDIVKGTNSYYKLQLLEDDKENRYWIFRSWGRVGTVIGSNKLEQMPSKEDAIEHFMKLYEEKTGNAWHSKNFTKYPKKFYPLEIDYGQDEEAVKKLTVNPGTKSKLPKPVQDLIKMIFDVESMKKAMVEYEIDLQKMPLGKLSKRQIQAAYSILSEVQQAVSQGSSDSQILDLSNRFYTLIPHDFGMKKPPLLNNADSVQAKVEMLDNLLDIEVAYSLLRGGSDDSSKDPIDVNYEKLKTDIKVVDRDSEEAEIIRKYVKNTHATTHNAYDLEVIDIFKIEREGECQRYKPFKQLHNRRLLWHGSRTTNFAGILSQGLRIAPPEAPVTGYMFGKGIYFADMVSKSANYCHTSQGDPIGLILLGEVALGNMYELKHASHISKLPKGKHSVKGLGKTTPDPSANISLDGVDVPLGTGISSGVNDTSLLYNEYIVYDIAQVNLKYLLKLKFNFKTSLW

CAPAN-1 [3] = experiment: Antiproliferative activity against human CAPAN-1 BRCA2-/- cells assessed as inhibition of cell growth incubated for 7 days by CCK-8 assay; type: functional, cell-based; settings: CAPAN-1, 168 h
MDA-MB-436 = experiment: Antiproliferative activity against human MDA-MB-436 BRCA1-/- cells assessed as inhibition of cell growth incubated for 7 days by CCK-8 assay; type: functional, cell-based; settings: MDA-MB-436, 168 h
[4] = Selectivity ratio of IC50 for antiproliferative activity against human Olaparib-resistant CAPAN-1 cells to IC50 for antiproliferative activity against human CAPAN-1 BRCA2-/- cells; type: functional
[5] = molecular target: Voltage-gated inwardly rectifying potassium channel KCNH2 (Homo sapiens, UniProt Q12809); experiment: Inhibition of hERG; type: toxicity
Voltage-gated inwardly rectifying potassium channel KCNH2, sequence (Q12809 whole entry): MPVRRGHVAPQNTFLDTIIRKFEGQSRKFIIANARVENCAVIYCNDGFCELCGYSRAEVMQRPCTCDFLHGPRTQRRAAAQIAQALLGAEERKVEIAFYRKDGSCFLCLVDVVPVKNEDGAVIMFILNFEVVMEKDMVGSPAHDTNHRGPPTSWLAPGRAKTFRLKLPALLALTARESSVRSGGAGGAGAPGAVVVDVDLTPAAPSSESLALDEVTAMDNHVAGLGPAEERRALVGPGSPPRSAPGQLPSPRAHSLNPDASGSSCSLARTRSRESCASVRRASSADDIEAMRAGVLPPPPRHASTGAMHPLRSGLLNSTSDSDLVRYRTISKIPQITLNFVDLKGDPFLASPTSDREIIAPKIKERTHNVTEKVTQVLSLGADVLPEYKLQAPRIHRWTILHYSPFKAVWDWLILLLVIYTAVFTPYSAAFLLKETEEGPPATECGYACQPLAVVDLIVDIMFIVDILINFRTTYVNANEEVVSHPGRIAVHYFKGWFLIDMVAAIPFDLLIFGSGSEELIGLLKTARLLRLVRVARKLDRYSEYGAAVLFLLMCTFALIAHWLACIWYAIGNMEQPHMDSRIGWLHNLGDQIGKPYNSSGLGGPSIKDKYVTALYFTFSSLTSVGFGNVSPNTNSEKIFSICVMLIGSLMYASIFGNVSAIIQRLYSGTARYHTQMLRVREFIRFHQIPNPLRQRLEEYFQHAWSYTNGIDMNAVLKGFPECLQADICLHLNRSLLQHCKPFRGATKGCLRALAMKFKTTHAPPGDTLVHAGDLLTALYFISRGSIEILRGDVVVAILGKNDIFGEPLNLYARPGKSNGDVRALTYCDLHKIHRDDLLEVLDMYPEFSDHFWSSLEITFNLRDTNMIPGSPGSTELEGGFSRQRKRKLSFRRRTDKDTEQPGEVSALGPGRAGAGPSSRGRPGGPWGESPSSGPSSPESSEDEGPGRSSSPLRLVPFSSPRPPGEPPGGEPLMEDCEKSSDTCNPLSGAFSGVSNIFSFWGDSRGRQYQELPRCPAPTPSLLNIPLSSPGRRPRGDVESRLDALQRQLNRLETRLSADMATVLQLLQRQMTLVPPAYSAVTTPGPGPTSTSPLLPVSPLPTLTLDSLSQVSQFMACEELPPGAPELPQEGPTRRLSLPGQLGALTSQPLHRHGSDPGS

[6] = Selectivity ratio of IC50 for antiproliferative activity against human Talazoparib-resistant CAPAN-1 cells to IC50 for antiproliferative activity against human CAPAN-1 BRCA2-/- cells; type: functional
[7] = Antiproliferative activity against human Talazoparib-resistant CAPAN-1 cells assessed as inhibition of cell growth incubated for 7 days by CCK-8 assay; type: functional, cell-based; settings: CAPAN-1, 168 h
[8] = Antiproliferative activity against human Simmiparib-resistant CAPAN-1 cells assessed as inhibition of cell growth incubated for 7 days by CCK-8 assay; type: functional, cell-based; settings: CAPAN-1, 168 h
[9] = system: Olaparib-resistant CAPAN-1; experiment: Antiproliferative activity against human Olaparib-resistant CAPAN-1 cells assessed as inhibition of cell growth incubated for 7 days by CCK-8 assay; type: functional, cell-based; settings: Olaparib-resistant CAPAN-1, 168 h
[10] = Selectivity ratio of IC50 for antiproliferative activity against human Simmiparib-resistant CAPAN-1 cells to IC50 for antiproliferative activity against human CAPAN-1 BRCA2-/- cells; type: functional
[11] = molecular target: T1, Poly [ADP-ribose] polymerase 1; experiment: Inhibition of PARP1 (unknown origin)
CAPAN-1 [12] = experiment: Induction of apoptosis in human CAPAN-1 cells assessed as late apoptotic cells at 1 uM incubated for 48 hrs by Annexin-V/PI staining based flow cytometry analysis (reference value: 4.95%); type: functional
CAPAN-1 [13] = experiment: Induction of apoptosis in human CAPAN-1 cells assessed as early apoptotic cells at 1 uM incubated for 48 hrs by Annexin-V/PI staining based flow cytometry analysis (reference value: 10.1%); type: functional
[14] = system: Olaparib-resistant CAPAN-1; experiment: Induction of apoptosis in human Olaparib-resistant CAPAN-1 cells assessed as late apoptotic cells at 1 uM incubated for 48 hrs by Annexin-V/PI staining based flow cytometry analysis (reference value: 3.67%); type: functional
[15] = system: Olaparib-resistant CAPAN-1; experiment: Induction of apoptosis in human Olaparib-resistant CAPAN-1 cells assessed as early apoptotic cells at 1 uM incubated for 48 hrs by Annexin-V/PI staining based flow cytometry analysis (reference value: 8.50%); type: functional

## O=C1NCC2c3c(cccc31)CCN2C(=O)c1cc(Cc2n[nH]c(=O)c3ccccc23)ccc1F (stereo unspecified)
[1]
  CC50: 0.096 µM

## CC1CN(C(=O)c2cc(Cc3n[nH]c(=O)c4ccccc34)ccc2F)Cc2cnnn21 (stereo unspecified)
[2]
  IC50: > 1 µM

## CC1CN(C(=O)c2cc(Cc3n[nH]c(=O)c4ccccc34)ccc2F)Cc2nnc(-c3cnccn3)n21 (stereo unspecified)
CAPAN-1 [3]
  IC50: 0.0073 µM
[2]
  IC50: 0.004 µM
MDA-MB-436
  IC50: < 0.0003 µM

## CC1CN(C(=O)c2cc(Cc3n[nH]c(=O)c4ccccc34)ccc2F)Cc2nnc(C(O)CO)n21 (stereo unspecified)
[2]
  IC50: 0.021 µM

## CC1CN(C(=O)c2cc(Cc3n[nH]c(=O)c4ccccc34)ccc2F)Cc2nnc(CCl)n21 (stereo unspecified)
[2]
  IC50: < 0.0003 µM
MDA-MB-436
  IC50: 0.0027 µM

## CC1CN(C(=O)c2cc(Cc3n[nH]c(=O)c4ccccc34)ccc2F)Cc2nncn21 (stereo unspecified)
[2]
  IC50: 0.0094 µM

## COc1ccc2c(c1)C(C)N(C(=O)c1cc(Cc3n[nH]c(=O)c4ccccc34)ccc1F)CC2 (stereo unspecified)
[2]
  IC50: 0.108 µM

## CC1(C)CN(C(=O)c2cc(Cc3n[nH]c(=O)c4ccccc34)ccc2F)Cc2cnnn21
[2]
  IC50: > 1 µM

## Cc1c(Cc2ccc(F)c(C(=O)N3Cc4nnc(-c5ccccn5)n4C(C)C3)c2)n[nH]c(=O)c1C (stereo unspecified)
[2]
  IC50: 0.0613 µM

## CC1CN(C(=O)c2cc(Cc3n[nH]c(=O)c4ccccc34)ccc2F)Cc2nnc(-c3c[nH]cn3)n21 (stereo unspecified)
[2]
  IC50: 0.0131 µM

## CC1CN(C(=O)c2cc(Cc3n[nH]c(=O)c4ccccc34)ccc2F)Cc2nnc(CF)n21 (stereo unspecified)
[2]
  IC50: 0.0119 µM

## CC1CN(C(=O)c2cc(Cc3n[nH]c(=O)c4ccccc34)ccc2F)Cc2nnc(CO[Si](C)(C)C(C)(C)C)n21 (stereo unspecified)
CAPAN-1 [3]
  IC50: 0.0547 µM

## CC(C)c1nnc2n1C(C)CN(C(=O)c1cc(Cc3n[nH]c(=O)c4ccccc34)ccc1F)C2 (stereo unspecified)
[2]
  IC50: 0.0041 µM

## CC1CN(C(=O)c2cc(Cc3n[nH]c(=O)c4ccccc34)ccc2F)Cc2nnc(C3CC3)n21 (stereo unspecified)
CAPAN-1 [3]
  IC50: 0.0607 µM
[2]
  IC50: 0.0032 µM
MDA-MB-436
  IC50: 0.0075 µM

## CC1CN(C(=O)c2cc(Cn3c(=O)[nH]c(=O)c4ccccc43)ccc2F)Cc2nnc(-c3ccccn3)n21 (stereo unspecified)
[2]
  IC50: 0.0046 µM

## CC1CN(C(=O)c2cc(Cc3n[nH]c(=O)c4ccccc34)ccc2F)Cc2nnc(-c3ncc[nH]3)n21 (stereo unspecified)
CAPAN-1 [3]
  IC50: 0.0137 µM
[2]
  IC50: 0.0032 µM
MDA-MB-436
  IC50: 0.0019 µM

## CC1CN(C(=O)c2cc(Cc3n[nH]c(=O)c4ccccc34)ccc2F)Cc2nnc(-c3ccco3)n21 (stereo unspecified)
[2]
  IC50: 0.0017 µM
MDA-MB-436
  IC50: < 0.0003 µM

## CC1CN(C(=O)c2cc(Cc3n[nH]c(=O)c4ccccc34)ccc2F)Cc2nnc(C(F)(F)C(F)(F)F)n21 (stereo unspecified)
[4]
  Ratio IC50: 590
[5]
  IC50: 40 µM
CAPAN-1 [3]
  IC50: 0.0025 µM
[6]
  Ratio IC50: 91
[7]
  IC50: 0.272 µM
[8]
  IC50: 1.53 µM
[9]
  IC50: 1.77 µM
[10]
  Ratio IC50: 509
[2]
  IC50: 0.0041 µM
MDA-MB-436
  IC50: 0.0019 µM

## CC1CN(C(=O)c2cc(Cc3n[nH]c(=O)c4ccccc34)ccc2F)Cc2nnc(-c3ccccn3)n21 (stereo unspecified)
[4]
  Ratio IC50: 165
[5]
  IC50: 17.4 µM
CAPAN-1 [3]
  IC50: 0.001 µM
[6]
  Ratio IC50: 55
[7]
  IC50: 0.097 µM
[8]
  IC50: 0.437 µM
[9]
  IC50: 0.292 µM
[10]
  Ratio IC50: 247
[2]
  IC50: 0.002 µM
MDA-MB-436
  IC50: < 0.0003 µM

## CC1CN(C(=O)c2cc(Cc3n[nH]c(=O)c4ccccc34)ccc2F)Cc2nnc(-c3cncs3)n21 (stereo unspecified)
CAPAN-1 [3]
  IC50: 0.0216 µM
[2]
  IC50: 0.0058 µM

## CC1c2cc(F)ccc2CCN1C(=O)c1cc(Cc2n[nH]c(=O)c3ccccc23)ccc1F (stereo unspecified)
[2]
  IC50: 0.0707 µM

## CC1CN(C(=O)c2cc(Cc3n[nH]c(=O)c4ccccc34)ccc2F)Cc2nnc(C(F)(F)F)n21 (stereo unspecified)
[7]
  IC50: 0.02 µM
[8]
  IC50: 0.02 µM
[9]
  IC50: 0.02 µM
[1]
  CC50: 0.042 µM
MDA-MB-436
  IC50: 0.0013 µM

## CC1(C)Cn2nncc2CN1C(=O)c1cc(Cc2n[nH]c(=O)c3ccccc23)ccc1F
[2]
  IC50: > 1 µM

## CC1CN(C(=O)c2cc(Cc3ccc(=O)[nH]n3)ccc2F)Cc2nnc(-c3ccccn3)n21 (stereo unspecified)
[2]
  IC50: 0.947 µM

## CC1CN(C(=O)c2cc(Cc3n[nH]c(=O)c4ccccc34)ccc2F)Cc2nnc(CN(C)C)n21 (stereo unspecified)
CAPAN-1 [3]
  IC50: 1.43 µM
[2]
  IC50: 0.0176 µM

## CC1CN(C(=O)c2cc(Cc3n[nH]c(=O)c4ccccc34)ccc2F)Cc2nnc(C3COC(C)(C)O3)n21 (stereo unspecified)
[2]
  IC50: 0.025 µM

## O=C1CC2c3c(cccc31)CCN2C(=O)c1cc(Cc2n[nH]c(=O)c3ccccc23)ccc1F (stereo unspecified)
[11]
  IC50: 0.00346 µM
[1]
  CC50: 0.00453 µM

## CC1CN(C(=O)c2cc(Cc3n[nH]c(=O)c4ccccc34)ccc2F)Cc2nnc(C(F)F)n21 (stereo unspecified)
CAPAN-1 [3]
  IC50: 0.0295 µM
[2]
  IC50: 0.0043 µM
MDA-MB-436
  IC50: 0.0029 µM

## CC1CN(C(=O)c2cc(COc3ccccc3C(N)=O)ccc2F)Cc2nnc(-c3ccccn3)n21 (stereo unspecified)
[2]
  IC50: 0.23 µM

## CC1CN(C(=O)c2cc(Cc3n[nH]c(=O)c4ccccc34)ccc2F)Cc2nnc(-c3cccs3)n21 (stereo unspecified)
[4]
  Ratio IC50: 717
[5]
  IC50: 4.1 µM
[6]
  Ratio IC50: 112
[7]
  IC50: 0.73 µM
[8]
  IC50: 3.29 µM
[9]
  IC50: 4.66 µM
[10]
  Ratio IC50: 507
[2]
  IC50: 0.0007 µM
MDA-MB-436
  IC50: 0.0011 µM

## CC1CN(C(=O)c2cc(Cc3n[nH]c(=O)c4ccccc34)ccc2F)Cc2nnc(-c3nccn3C)n21 (stereo unspecified)
[2]
  IC50: 0.0077 µM

## CC1CN(C(=O)c2cc(Cc3n[nH]c(=O)c4ccccc34)ccc2F)Cc2nnc(-c3cnn(C)c3)n21 (stereo unspecified)
CAPAN-1 [3]
  IC50: 0.218 µM
[2]
  IC50: 0.0028 µM
MDA-MB-436
  IC50: 0.0211 µM

## CC1CN(C(=O)c2cc(Cc3n[nH]c(=O)c4ccccc34)ccc2F)Cc2nnc(C(F)(F)Cl)n21 (stereo unspecified)
CAPAN-1 [3]
  IC50: 0.0034 µM
[2]
  IC50: 0.0034 µM
MDA-MB-436
  IC50: 0.0003 µM

## CC1CN(C(=O)c2cc(Cc3n[nH]c(=O)c4ccccc34)ccc2F)Cc2nnc(-c3ccsc3)n21 (stereo unspecified)
CAPAN-1 [3]
  IC50: 0.0073 µM
[2]
  IC50: 0.002 µM

## CC1c2ccccc2CCN1C(=O)c1cc(Cc2n[nH]c(=O)c3ccccc23)ccc1F (stereo unspecified)
[2]
  IC50: 0.0428 µM

## Cn1ncnc1[C@H]1c2n[nH]c(=O)c3cc(F)cc(c23)N[C@@H]1c1ccc(F)cc1 [TALAZOPARIB]
[4]
  Ratio IC50: 1344
[6]
  Ratio IC50: 666
[7]
  IC50: 0.182 µM
[8]
  IC50: 0.478 µM
[9]
  IC50: 0.367 µM
[10]
  Ratio IC50: 1749

## Cc1cc(Cc2ccc(F)c(C(=O)N3Cc4nnc(-c5ccccn5)n4C(C)C3)c2)n[nH]c1=O (stereo unspecified)
[2]
  IC50: > 1 µM

## O=C(c1cc(Cc2n[nH]c(=O)c3ccccc23)ccc1F)N1CCc2ccccc2C1C1CC1 (stereo unspecified)
[2]
  IC50: 0.182 µM

## CC1Cn2nncc2CN1C(=O)c1cc(Cc2n[nH]c(=O)c3ccccc23)ccc1F (stereo unspecified)
[2]
  IC50: > 1 µM

## O=C(c1cc(Cc2n[nH]c(=O)c3ccccc23)ccc1F)N1CCN(C(=O)C2CC2)CC1 [OLAPARIB]
CAPAN-1 [12]
  Activity: 4.5%
CAPAN-1 [13]
  Activity: 16.2%
[7]
  IC50: 11.5 µM
[8]
  IC50: 27.6 µM
[14]
  Activity: 4.02%
[9]
  IC50: 0.04 µM
[15]
  Activity: 11.5%
MDA-MB-436
  IC50: 0.0432 µM

## CC1CN(C(=O)c2cc(Cc3n[nH]c(=O)c4ccccc34)ccc2F)Cc2nnc(CO)n21 (stereo unspecified)
[2]
  IC50: 0.0092 µM
